One assay has as its system WT FA1090. As to the kind of experiment: Etest antibiotic susceptibility, WT strain. It is filed as cell-based, Neisseria gonorrhoeae. The note with it: ~22 h, MIC repeated at least twice of three, unit assumed. On the procedure:
The henotypes associated with deletion of metQ were explored. […] It was first examined whether complete elimination of MetQ affects cell envelope homeostasis by exposing bacteria to seven antibiotics with different mechanisms of action using Etest assays.
(§1) Briefly, non-piliated colonies of each strain were suspended in GCBL to a turbidity equivalent to that of a 0.5 McFarland standard and spread on 150 mm tissue culture dishes filled with 50 mL GCB to a thickness of 4 mm. Etest strips were placed on the agar surface and plates were cultured for ~22 h, at which point the MICs were determined. Sensitivity assessments were performed three times, and MIC values that repeated at least twice are reported.

Assay [1] concerns complementation strain ΔmetQ/Plac::metQ (FA1090). Description: Etest antibiotic susceptibility, complementation strain. It is filed as cell-based, Neisseria gonorrhoeae. To be noted: ~22 h, MIC repeated at least twice of three.
Excerpt: (§2) Prokaryotic lipoproteins play versatile functions ranging from cell envelope stability to nutrient acquisition, substrate binding for ABC transporter systems, modulation of the host immune system, signal transduction, and virulence (Kovacs-Simon et al.Infect Immun 79, 548-561 (2011); Hayashi and Wu, PLoS pathogens 14, e1007081 (2018)). […] The henotypes associated with deletion of metQ were explored. A null mutant in ngo2139 ΔmetQ) and its complemented mutant ΔmetQ/Plac::metQ in Ng FA1090 were constructed (Zielke et al., Mol Cell Proteomics 15, 2338-2355 (2016)). It was first examined whether complete elimination of MetQ affects cell envelope homeostasis by exposing bacteria to seven antibiotics with different mechanisms of action using Etest assays.
as §1, with “Etest antimicrobial sensitivity assessments: The susceptibility of WT FA1090, isogenic knockout ΔmetQ, and complementation strain ΔmetQ/Plac: :metQ to seven antimicrobial compounds was assessed by Etests as previously (Zielke et al., PLoS pathogens 14, e1007081 (2018)), according to manufacturer’s instructions. Briefly,” for “Briefly,”

Assay [2] has as its system isogenic knockout ΔmetQ (FA1090). As to the kind of experiment: Etest antibiotic susceptibility, ΔmetQ knockout. It is filed as cell-based, Neisseria gonorrhoeae. To be noted: ~22 h, MIC repeated at least twice of three, unit assumed.
Excerpt: as §2
as §1, with “Etest antimicrobial sensitivity assessments: The susceptibility of WT FA1090, isogenic knockout ΔmetQ, and complementation strain ΔmetQ/Plac: :metQ to seven antimicrobial compounds was assessed by Etests as previously (Zielke et al., PLoS pathogens 14, e1007081 (2018)), according to manufacturer’s instructions. Briefly,” for “Briefly,”

In another assay the test system is rMetQ. Description: Pilot immunogenicity: immunoblot of rMetQ with serum of immunized mice. In kind it is in vivo, Neisseria gonorrhoeae. The note with it: BALB/c mice, groups of 5; subcutaneous prime, three intranasal boosts. How it is done: First, the immunogenicity of rMetQ was tested by immunizing groups of 5 BALB/c mice with rMetQ, rMetQ-CpG, CpG, or PBS using a subcutaneous prime immunization, followed by a regimen of three intranasal boost doses. A robust, single protein band corresponding to the molecular weight of rMetQ (~30 kDa) was detected in immunoblots with serum derived from mice immunized with rMetQ alone. […] Based on these encouraging results, large-scale immunization/challenge experiments were performed. […] Vaginal washes were collected after the second boost, and antigen-specific antibody titers were assessed in serum collected 14 days after the third boost. […] Bacterial clearance was assessed by enumerating Ng CFUs present in vaginal washes on days 1, 3, 5, and 7 post-infection (FIG. 3C). […]
Densitometry analysis: The expression of MetQ during WT FA1090 infection in female BALB/c mice and intensities of protein bands detected in serum specificity studies were determined by densitometry using FIJI software (Schindelin et al., Nature methods 9, 676-682 (2012)). The amount of MetQ on day 1 post-infection was arbitrarily set to 1 and the protein abundance on days 3 and 5 is expressed relative to the MetQ cellular pool detected on day 1.

In brackets after ≈: the same amount, converted by molar mass. Marks after values point to notes of the source that are not given here.

As for `CC1(C)S[C@@H]2[C@H](NC(=O)Cc3ccccc3)C(=O)N2[C@H]1C(=O)O` [Benzylpenicillin], the MIC (Etest) (against WT FA1090; in assay [1] (unit assumed); in assay [2]) was 0.064 mg/L (≈ 0.191 µM) each time.

As to `CO/N=C(\C(=O)N[C@@H]1C(=O)N2C(C(=O)O)=C(COC(C)=O)CS[C@H]12)c1csc(N)n1` [Cefotaxime], the MIC (Etest) came to 0.004 mg/L (≈ 0.00878 µM) against WT FA1090, 0.008 mg/L (≈ 0.0176 µM) in assay [1] (unit assumed) and 0.004 mg/L (≈ 0.00878 µM) in assay [2].

For Polymyxin B, the MIC (Etest) (in the assay with WT FA1090; in assay [1] (unit assumed); in assay [2]) was 64 mg/L throughout.

For `CC[C@H]1OC(=O)[C@H](C)[C@@H](O[C@H]2C[C@@](C)(OC)[C@@H](O)[C@H](C)O2)[C@H](C)[C@@H](O[C@@H]2O[C@H](C)C[C@H](N(C)C)[C@H]2O)[C@](C)(O)C[C@@H](C)CN(C)[C@H](C)[C@@H](O)[C@]1(C)O` [Azithromycin], the MIC (Etest) against WT FA1090 is 0.032 mg/L (≈ 0.0427 µM); in assay [1], 0.5^b; in assay [2] it was 0.032 mg/L (≈ 0.0427 µM).

Turning to `CN[C@H](CC(C)C)C(=O)N[C@H]1C(=O)N[C@@H](CC(N)=O)C(=O)N[C@H]2C(=O)N[C@H]3C(=O)N[C@H](C(=O)N[C@H](C(=O)O)c4cc(O)cc(O)c4-c4cc3ccc4O)[C@H](O)c3ccc(c(Cl)c3)Oc3cc2cc(c3O[C@@H]2O[C@H](CO)[C@@H](O)[C@H](O)[C@H]2O[C@H]2C[C@](C)(N)[C@H](O)[C@H](C)O2)Oc2ccc(cc2Cl)[C@H]1O` [Vancomycin], the MIC (Etest) (with WT FA1090; in assay [1] (unit assumed); in assay [2]) was 8 mg/L (≈ 5.52 µM) in each case.

B1: rMetQ: untagged recombinant N. gonorrhoeae FA1090 MetQ lacking the lipoprotein signal peptide; sequence in FIG. 8 (SEQ ID NO: 4) (protein, listed as Neisseria gonorrhoeae)
chain: GAMEKDSAPAASAAAPSADNGAAKKEIVFGTTVGDFGDMVKEQIQAELEKKGYTVKLVEFTDYVRPNLALAEGELDINVFQHKPYLDDFKKEHNLDITEAFQVPTAPLGLYPGKLKSLEEVKDGSTVSAPNDPSNFARALVMLNELGWIKLKDGINPLTASKADIAENLKNIKIVELEAAQLPRSRADVDFAVVNGNYAISSGMKLTEALFQEPSFAYVNWSAVKTADKDSQWLKDVTEAYNSDAFKAYAHKRFEGYKYPAAWNEGAAKKLAAA
For the molecule B1, the “Immunoblot intensity of rMetQ band probed with serum” value with rMetQ was 44,405 relative intensity units.

For the origin of these results see patent US20230241196A1, “GONORRHEA SUBUNIT VACCINE” (priority 2020, published 2023).
